Results from paper PMC4761355, “Pre-clinical evaluation of eight DOTA coupled gastrin-releasing peptide receptor (GRP-R) ligands for in vivo targeting of receptor-expressing tumors” (EJNMMI Research, 2016).
Like-named read-outs stand apart in the source and are kept apart here. Where a SMILES comes first, the peptide text is derived from it. [ ]: non-standard residue; d: D form. The star is where a group is joined. DOTA = O=C(O)CN1CCN(CC(=O)O)CCN(CC(=O)*)CCN(CC(=O)O)CC1; Sta = CC(C)C[C@H](N)[C@@H](O)CC(=O)O; Cha = N[C@@H](CC1CCCCC1)C(=O)O; Nle = CCCC[C@H](N)C(=O)O; AEEA = NCCOCCOCC(=O)O; Sar = CNCC(=O)O

Tests used:
[1] = biological target: T1, gastrin-releasing peptide receptor (GRP-R) on PC-3 human prostate cancer cells (Homo sapiens, UniProt P30550); test: Saturation binding experiments on whole PC-3 cells with 111In-labeled DOTA-PEG4-BN conjugates; settings: 4 °C; for B max (binding sites/cell) *10^5: 111In-labeled
T1 construct: endogenous in cells; host or cells: PC-3 human prostate cancer cells
T1 sequence (P30550 whole entry): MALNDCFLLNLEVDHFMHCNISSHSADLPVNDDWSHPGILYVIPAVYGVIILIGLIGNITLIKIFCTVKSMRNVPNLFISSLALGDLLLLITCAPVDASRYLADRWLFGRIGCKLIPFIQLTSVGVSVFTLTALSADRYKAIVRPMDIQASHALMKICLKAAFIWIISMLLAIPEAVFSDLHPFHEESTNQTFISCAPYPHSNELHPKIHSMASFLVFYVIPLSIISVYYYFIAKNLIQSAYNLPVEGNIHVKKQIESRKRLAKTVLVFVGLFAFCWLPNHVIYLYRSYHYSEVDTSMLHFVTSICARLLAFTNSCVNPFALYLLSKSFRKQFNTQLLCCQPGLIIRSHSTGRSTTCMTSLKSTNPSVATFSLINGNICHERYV
Method: DOTA-PEG4-BN conjugates were studied in vitro performing saturation binding experiments on whole cells. The DOTA coupled derivatives were labeled in Eppendorf tubes containing 10 μL of ^111InCl3 (50–150 KBq/μL), 1 nmol of peptide (10 μM final concentration), and sodium acetate buffer (0.4 M, pH 5) adjusted to a final volume of 100 μL. The solution was incubated for 30 min at 95 °C in a heating block. Silica gel thin layer chromatography using 0.1 N sodium citrate (pH 5) as mobile phase was utilized for quality control. […] Saturation of free chelators with cold indium was not performed. Confluent PC-3 human prostate cancer cells were seeded in six-well plates (~1.0 × 10^6 cells) 24 h before starting the experiments. Increasing concentrations of the ^111In-DOTA-peptide ranging from 50 to 0.05 nM were assigned to different wells. For blocking experiments, excess of the respective unlabeled peptide was used. For each radioligand, triplicates were prepared for every concentration, for both total binding and nonspecific binding. Before adding the radioligands to the wells, the plates were placed on ice for 30 min. After adding the radioligands and the blocking for nonspecific binding, the plates were incubated for 1 h at 4 °C. Afterwards, the binding buffer was removed and the cells were washed twice with ice-cold phosphate-buffered saline (PBS; pH 7.4). Cell-bound radioactivity was subsequently recovered by trypsinization of the wells. Radioactivity in the bound and free fractions was determined with a WIZARD gamma counter (Wallac, Turku, Finland). Specific binding was calculated by subtracting nonspecific from total binding at each concentration of radioligand. Affinity (Kd) and binding site density (Bmax) were calculated from Scatchard plots using Prism software (GraphPad Software Inc.).
Saturation binding experiments were performed on PC-3 cells at 4 °C.

[2] = Serum stability of 177Lu-labeled peptides in human serum; type: in vitro ADME; settings: human serum (freshly prepared), 37 °C
Method: Quality controls to determine the labeling yield and the radiochemical purity were performed using radio-HPLC. Radiolabeled peptides were utilized without further purification. […] The mixture was incubated in a 5 % CO2, 37 °C. At different time points, 100 μL aliquots (in triplicates) were removed and treated with 200 μL of EtOH to precipitate serum proteins. Samples were then centrifuged for 15 min at 5000 rpm (2655g). After centrifugation, 50 μL of supernatant was removed and counted in a γ-well counter; the sediment was washed twice with 1 mL of EtOH and counted. The activity in the supernatant was compared with the activity in the pellet to obtain the percentage of peptide not bound to proteins or radiometal transferred to serum proteins. The supernatant was also analyzed with radio-HPLC (eluents: A = 0.1 % trifluoroacetic acid in water and B = acetonitrile; gradient 0–25 min 95–50 % B) to determine the relative amount of intact peptide and its metabolites in the serum. The half-life was calculated fitting a first-order reaction to the experimental data (Equation 1) using Prism software (GraphPad Software Inc.).

PC-3 xenografts [3] = test: Biodistribution in nude mice bearing subcutaneous PC-3 xenografts; type: in vivo, CD1 nude mice
Method: (§1) For animal experiments, the institutional and national guide for the care and use of laboratory animals was followed. CD1 nude mice (n = 36, female, 6 weeks old, 18-22 g body weight) were subcutaneously injected in the right thigh with 2 × 10^6 PC-3 cells in 300 μl of a medium-to-matrigel solution (50:50, v:v, BD Biosciences). […] DOTA-PEG4-BN conjugates were radiolabelled with ^111In as described elsewhere, and 1.85 MBq (0.25 μg, 7.4 MBq/μg in 100 μl NaCl) of radiopharmaceutical was injected in the tail vein of each animal. Injected dose was determined by counting the syringe before and after injection. At 1 h post injection, three mice per group were anesthetized and placed on a horizontal support for planar imaging. The same procedure was repeated at 6 h and 24 h post injection. Images were acquired for 60 to 90 s with a high-resolution scintigraphic camera equipped with a square tungsten collimator integrated with a CsI(Tl) scintillation structure, coupled to a Hamamatsu […] Flat Panel Position Sensitive Photomultiplier Tube (PSPMT), a pure tungsten shielding housing, a charge readout electronics, and a data acquisition system for online image display. Region of interest (ROI) analysis was performed by drawing a region over the visible tumor (target) and copying it to the opposite thigh (background). The counts in the tumor ROI divided by the counts in the background ROI provided tumor-to-background (T/B) ratios. After each imaging session, mice were euthanized. The organs and the tumors were excised and weighed, and the radioactivity was determined using a single well γ-counter. Results were expressed as percentage of injected dose per gram (%ID/g) of tissue.

PC-3 xenografts [4] = test: Gamma camera planar imaging, tumor-to-background ROI analysis in mice with PC-3 xenografts; type: in vivo, CD1 nude mice
Method: as §1, with “Region of interest (ROI) analysis was performed by drawing a region over the visible tumor (target) and copying it to the opposite thigh (background). The counts in the tumor ROI divided by the counts in the background ROI provided tumor-to-background (T/B) ratios. After each imaging session, mice were euthanized.” left out

[5] = Biodistribution in nude mice bearing subcutaneous PC-3 xenografts; type: in vivo, CD1 nude mice; settings: female, CD1 nude, mouse, blood, iv, 0.25 μg, total radioactivity; 111In-labeled, 1 h post injection
Method: as §1

[6] = first-order fit, read-out: Serum half-life (converted)
[7] = 111In-labeled, i.v., 1, 6, 24 h

Row | Structure (SMILES) | half-life at 0.6 nmol/mL [2, 6] [h] | B max (binding sites/cell) *10^5 [1] [binding sites/cell *10^5] | Tumor targeting / uptake in PC-3 xenografts (in words) (PC-3 xenografts [3]; [7]) | further results
1 | CCCC[C@H](NC(=O)[C@H](CC1CCCCC1)NC(=O)[C@H](Cc1c[nH]cn1)NC(=O)CNC(=O)[C@@H](NC(=O)[C@H](C)NC(=O)[C@H](Cc1c[nH]c2ccccc12)NC(=O)[C@H](CCC(N)=O)NC(=O)COCCOCCNC(=O)COCCOCCNC(=O)CN1CCN(CC(=O)O)CCN(CC(=O)O)CCN(CC(=O)O)CC1)C(C)C)C(=O)N[C@@H](CCC(=O)O)C(N)=O [BN3, -Gln-Trp-Ala-Val-Gly-His-Cha-Nle-Glu-NH2] ({DOTA-AEEA-AEEA}-QWAVGH[Cha][Nle]E-NH2) | 40.7 |  |  | Specific binding to PC-3 cells (in words) [1]: no specific binding was detectable
2 | CC(C)C[C@H](NC(=O)C[C@H](O)[C@H](CC(C)C)NC(=O)[C@H](Cc1c[nH]cn1)NC(=O)CN(C)C(=O)[C@@H](NC(=O)[C@H](C)NC(=O)[C@H](Cc1c[nH]c2ccccc12)NC(=O)[C@H](CCC(N)=O)NC(=O)COCCOCCNC(=O)COCCOCCNC(=O)CN1CCN(CC(=O)O)CCN(CC(=O)O)CCN(CC(=O)O)CC1)C(C)C)C(N)=O [BN5, -Gln-Trp-Ala-Val-NMeGly-His-Sta-Leu-NH2] ({DOTA-AEEA-AEEA}-QWAV[Sar]H[Sta]L-NH2) |  | 1.56 ± 0.39 |  | 
3 | CCCC[C@H](NC(=O)[C@H](CC1CCCCC1)NC(=O)[C@H](Cc1c[nH]cn1)NC(=O)CNC(=O)[C@@H](NC(=O)[C@H](C)NC(=O)[C@H](Cc1c[nH]c2ccccc12)NC(=O)[C@H](CCC(N)=O)NC(=O)[C@@H](Cc1ccccc1)NC(=O)COCCOCCNC(=O)COCCOCCNC(=O)CN1CCN(CC(=O)O)CCN(CC(=O)O)CCN(CC(=O)O)CC1)C(C)C)C(N)=O [BN7, -DPhe-Gln-Trp-Ala-Val-Gly-His-Cha-Nle-NH2] | ~20 |  | overall poor targeting to the receptor-positive xenografts | Blood clearance / circulating half-life (in words) (PC-3 xenografts [3]; [7]): very rapid blood clearance
4 | CCCC[C@H](NC(=O)[C@H](CC1CCCCC1)NC(=O)[C@H](Cc1c[nH]cn1)NC(=O)CNC(=O)[C@@H](NC(=O)[C@H](C)NC(=O)[C@H](Cc1c[nH]c2ccccc12)NC(=O)[C@H](CCC(N)=O)NC(=O)COCCOCCNC(=O)COCCOCCNC(=O)CN1CCN(CC(=O)O)CCN(CC(=O)O)CCN(CC(=O)O)CC1)C(C)C)C(N)=O [BN2, -Gln-Trp-Ala-Val-Gly-His-Cha-Nle-NH2] ({DOTA-AEEA-AEEA}-QWAVGH[Cha][Nle]-NH2) | ~20 | 4.10 ± 1.23 |  | 
5 | CC(C)C[C@H](NC(=O)C[C@H](O)[C@H](CC(C)C)NC(=O)[C@H](Cc1c[nH]cn1)NC(=O)CN(C)C(=O)[C@@H](NC(=O)[C@H](C)NC(=O)[C@H](Cc1c[nH]c2ccccc12)NC(=O)[C@H](CCC(N)=O)NC(=O)[C@@H](Cc1ccccc1)NC(=O)COCCOCCNC(=O)COCCOCCNC(=O)CN1CCN(CC(=O)O)CCN(CC(=O)O)CCN(CC(=O)O)CC1)C(C)C)C(N)=O [BN8, DOTA-PEG-DPhe-Gln-Trp-Ala-Val-NMeGly-His-Sta-Leu-NH2] | 414 |  | highest tumor uptake | Imaging contrast of tumor uptake (in words) (PC-3 xenografts [4]; gamma camera, 6 h post injection): best contrast of tumor uptake compared to other organs; half-life at 0.6 nmol/mL ([2]; read-out: Serum/plasma half-life): > 360 h
6 | CSCC[C@H](NC(=O)[C@H](CC(C)C)NC(=O)[C@H](Cc1c[nH]cn1)NC(=O)CNC(=O)[C@@H](NC(=O)[C@H](C)NC(=O)[C@H](Cc1c[nH]c2ccccc12)NC(=O)[C@H](CCC(N)=O)NC(=O)COCCOCCNC(=O)COCCOCCNC(=O)CN1CCN(CC(=O)O)CCN(CC(=O)O)CCN(CC(=O)O)CC1)C(C)C)C(N)=O [BN1] |  | 2.45 ± 0.73 | rather poor | Blood clearance / circulating half-life (in words) (PC-3 xenografts [3]; mouse, in vivo, iv): very rapid blood clearance
7 | CC(C)C[C@H](NC(=O)C[C@H](O)[C@H](CC(C)C)NC(=O)[C@H](Cc1c[nH]cn1)NC(=O)CNC(=O)[C@@H](NC(=O)[C@H](C)NC(=O)[C@H](Cc1c[nH]c2ccccc12)NC(=O)[C@H](CCC(N)=O)NC(=O)[C@@H](Cc1ccccc1)NC(=O)COCCOCCNC(=O)COCCOCCNC(=O)CN1CCN(CC(=O)O)CCN(CC(=O)O)CCN(CC(=O)O)CC1)C(C)C)C(N)=O [BN6, -DPhe-Gln-Trp-Ala-Val-Gly-His-Sta-Leu-NH2] | 208 |  |  | 
8 | CC(C)C[C@H](NC(=O)C[C@H](O)[C@H](CC(C)C)NC(=O)[C@H](Cc1c[nH]cn1)NC(=O)CNC(=O)[C@@H](NC(=O)[C@H](C)NC(=O)[C@H](Cc1c[nH]c2ccccc12)NC(=O)[C@H](CCC(N)=O)NC(=O)COCCOCCNC(=O)COCCOCCNC(=O)CN1CCN(CC(=O)O)CCN(CC(=O)O)CCN(CC(=O)O)CC1)C(C)C)C(N)=O [BN4, -Gln-Trp-Ala-Val-Gly-His-Sta-Leu-NH2] ({DOTA-AEEA-AEEA}-QWAVGH[Sta]L-NH2) | 224 | 5.54 ± 1.56 | very high initial uptake that dropped at later time points | Blood clearance / circulating half-life (in words) (PC-3 xenografts [3]; [7]): longest circulating half-life of all tested compounds; tissue uptake at 1 h [5]: ~5 %ID/g; Tumor-to-background (T/B) ratios in vivo (in words) (PC-3 xenografts [4]; 111In-labeled, tumor ROI vs opposite thigh): least favorable of all peptides
